According to patent publication US10059674B2, “Design, synthesis, and biological evaluation of 1-methyl-1, 4-dihyrdoindeno[1,2-C]pyrazole analogues as potential anticaner agents targeting tubulin colchicine binding site” (ACT PHARMA CO., LTD., priority 2016, dated 2018):
Read-outs that look alike come from different tables or passages of the source.

What was measured:
in vitro [1] = conditions: rat, microsomes, pH 7.47
[2] = system: human hepatocellular carcinoma (HepG2) cells; assay: Anti-proliferation test (MTT colorimetry); format: cell-based; conditions: HepG2, 72 h
Procedure: (§1) The compound of formula 1 (prepared in embodiment 1), and the compound of formula 2 (prepared in embodiment 2) are given at different concentrations to human hepatocellular carcinoma (HepG2) cells, human prostate carcinoma (PC3) cells, human cervical carcinoma (HeLa) cells, human breast adenocarcinoma (MCF-7) cells, and human leukemia (K562) cells; all the groups are incubated 72 h in an incubator containing 5% of CO2 at 37° C., and then inhabitation ratios of the compounds to the tumor cells are measured by using methyl thiazolyl tetrazolium (MTT) colorimetry, and results are shown in table 1.

[3] = system: human leukemia (K562) cells; assay: Anti-proliferation test (MTT colorimetry); format: cell-based; conditions: K562, 72 h
Procedure: as §1

[4] = system: human breast adenocarcinoma (MCF-7) cells; assay: Anti-proliferation test (MTT colorimetry); format: cell-based; conditions: MCF7, MCF-7, 72 h
Procedure: as §1

[5] = system: human prostate carcinoma (PC3) cells; assay: Anti-proliferation test (MTT colorimetry); format: cell-based; conditions: PC-3, PC3, 72 h
Procedure: as §1

[6] = system: human cervical carcinoma (HeLa) cells; assay: Anti-proliferation test (MTT colorimetry); format: cell-based; conditions: 72 h
Procedure: as §1

in vitro [7] = conditions: mouse, liver microsomes, pH 7.47
[8] = monkey, microsomes, 1 µM, pH 7.47
[9] = MDCK cell permeability test; conditions: dog, MDCK, 90 min
P-gp = assay: MDCK cell permeability test; conditions: dog, MDCK
MDCK cells = assay: MDCK cell permeability test; conditions: for Efllux ratio: Papp(B→A)/Papp(A→B)
[10] = rat, microsomes, 1 µM, pH 7.47
tubulin = assay: Tubulin polymerization experiment (Cytoskeleton Tubulin Polymerization Assay Kit); format: biochemical
Procedure: The tubulin polymerization experiment is carried out according to the specifications of Tubulin Polymerization Assay Kit of Cytoskeleton Corporation.

CCOc1cccc(Nc2nn(C)c3c2Cc2cc(OCC)c(OCC(N)=O)cc2-3)c1 [LL-01]
half-life at 1 µM (in vitro [1]): 56.8 min | microsomal CLint at 1 µM (in vitro [1]): 24.4 µL/min/mg | IC50 [2]: 26 nM | IC50 [3]: 7.15 nM | IC50 [4]: 3.23 nM | IC50 [5]: 19 nM | IC50 [6]: 7.4 nM | half-life at 1 µM (in vitro [7]): 55.3 min | microsomal CLint at 1 µM (in vitro [7]): 25 µL/min/mg | Remainder ([8]; 0 h): 100.00% | Remainder ([8]; 10 min): 52.00% | Remainder ([8]; 0.5 h): 20.40% | Remainder ([8]; 1.5 h): 4.76% | Papp A→B at 90 min ([9]; Apparent permeability coefficient A→B, 1st line of the compound (condition not given)): 0.6 ×10⁻⁶ cm/s | Papp A→B at 90 min ([9]; Apparent permeability coefficient A→B, 2nd line of the compound (condition not given)): 16 ×10⁻⁶ cm/s | Papp A→B at 90 min, 10 µM ([9]; Apparent permeability coefficient A→B, 3rd line of the compound (condition not given)): 18 ×10⁻⁶ cm/s | Papp B→A at 90 min ([9]; Apparent permeability coefficient B→A, 1st line of the compound (condition not given)): 0.8 ×10⁻⁶ cm/s | Papp B→A at 90 min ([9]; Apparent permeability coefficient B→A, 2nd line of the compound (condition not given)): 18.9 ×10⁻⁶ cm/s | Papp B→A at 90 min, 10 µM ([9]; Apparent permeability coefficient B→A, 3rd line of the compound (condition not given)): 19.6 ×10⁻⁶ cm/s | recovery at 90 min ([9]; Recovery rate A→B, 2nd line of the compound (condition not given)): 69.4% | recovery at 90 min, 10 µM ([9]; Recovery rate A→B, 3rd line of the compound (condition not given)): 62.3% | recovery at 90 min ([9]; Recovery rate A→B, 1st line of the compound (condition not given; method: without / with 10 μM cyclosporine A)): 93.8% | recovery at 90 min ([9]; Recovery rate B→A, 1st line of the compound (condition not given)): 102% | recovery at 90 min ([9]; Recovery rate B→A, 2nd line of the compound (condition not given)): 85.4% | recovery at 90 min, 10 µM ([9]; Recovery rate B→A, 3rd line of the compound (condition not given)): 84.6% | efflux ratio at 90 min (P-gp): 1.2 | PGP substrate judgment (MDCK cells; MDCK cells): is not the PGP substrate and No | Permeability Judgment (MDCK cells; MDCK cells): moderate permeability | Efllux ratio (MDCK cells; 2nd line of the compound (condition not given)): 1.2 | Efllux ratio (MDCK cells; 3rd line of the compound (condition not given)): 1.1 | Remainder ([10]; 0 h): 100.00% | Remainder ([10]; 10 min): 87.70% | Remainder ([10]; 0.5 h): 68.13% | Remainder ([10]; 1.5 h): 33.19% | inhibition of tubulin polymerization (in words) (tubulin; FIGS. 1 and 2): able to inhibit tubulin polymerization | IC50 (tubulin; read-out: tubulin polymerization inhibiting IC50): 4620 nM
